What was measured:
HEK cells = experiment: Cytotoxicity testing on HEK cells
Sirt1 [1] = target: T1, Sirt1 (Homo sapiens, UniProt Q96EB6); experiment: in vitro activity of Sirt1; type: biochemical; settings: concentration of 100 μM
T1 sequence (Q96EB6 1-747): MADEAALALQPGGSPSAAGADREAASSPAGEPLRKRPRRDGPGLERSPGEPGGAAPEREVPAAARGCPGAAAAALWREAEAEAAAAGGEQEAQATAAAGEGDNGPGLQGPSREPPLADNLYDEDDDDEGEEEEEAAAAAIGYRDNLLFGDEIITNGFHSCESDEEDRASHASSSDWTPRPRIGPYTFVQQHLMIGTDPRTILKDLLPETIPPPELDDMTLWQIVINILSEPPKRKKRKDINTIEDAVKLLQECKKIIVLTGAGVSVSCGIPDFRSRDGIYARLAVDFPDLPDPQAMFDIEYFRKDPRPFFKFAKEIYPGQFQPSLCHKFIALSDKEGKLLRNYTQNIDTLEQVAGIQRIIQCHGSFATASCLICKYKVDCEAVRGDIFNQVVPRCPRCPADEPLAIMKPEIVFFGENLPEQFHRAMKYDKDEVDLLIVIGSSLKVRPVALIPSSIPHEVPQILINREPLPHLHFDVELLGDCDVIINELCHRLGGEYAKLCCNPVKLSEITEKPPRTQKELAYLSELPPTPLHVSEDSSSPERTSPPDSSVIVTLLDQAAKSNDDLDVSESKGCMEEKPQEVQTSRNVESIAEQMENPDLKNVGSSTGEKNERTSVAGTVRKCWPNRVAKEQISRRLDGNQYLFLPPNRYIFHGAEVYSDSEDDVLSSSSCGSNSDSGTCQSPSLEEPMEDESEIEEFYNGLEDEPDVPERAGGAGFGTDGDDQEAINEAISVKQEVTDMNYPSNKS

Sirt5 [2] = target: T2, Sirt5 (Homo sapiens, UniProt Q9NXA8); experiment: Fluor-de-Lys peptide deacetylation assay, Sirt5; type: biochemical; settings: 100 μM compound; 0.1 mM FdL-1 peptide, 0.5 mM NAD+
T2 construct: Sirt5 residues 34-302; His-tag with linker comprising a TEV protease cleavage site (N); made in house
T2 sequence (Q9NXA8 34-302): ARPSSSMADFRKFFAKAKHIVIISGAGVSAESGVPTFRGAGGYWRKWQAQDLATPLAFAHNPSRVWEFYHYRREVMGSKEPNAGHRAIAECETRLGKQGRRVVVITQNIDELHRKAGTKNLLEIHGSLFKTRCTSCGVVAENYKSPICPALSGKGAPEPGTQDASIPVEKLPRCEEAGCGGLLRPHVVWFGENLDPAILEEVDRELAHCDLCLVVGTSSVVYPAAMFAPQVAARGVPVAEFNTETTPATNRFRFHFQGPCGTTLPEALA
Outline: (§1)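 E. coli-expressed human Sirtuins with 0.5 mM NAD+ and 0.1 mM Fluor-de-Lys peptide: FdL-2 (QPK(acetyl-K)) for Sirt3, FdL-1 (RHK(acetyl-K)) for Sirt5. Compounds at 100 μM final; 30 min at 37 °C, then trypsin developer for 45 min at room temperature.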

Sirt6 = target: T3, Sirt6 (Homo sapiens, UniProt Q8N6T7); experiment: Fluor-de-Lys peptide deacetylation assay, Sirt6; type: biochemical; settings: 100 μM compound; 0.1 mM FdL-1 peptide, 0.5 mM NAD+
T3 construct: Sirt6 residues 13-308; His-tag with linker comprising a TEV protease cleavage site (N, cleaved yes); made in house; host or cells: E. coli Rosetta2
Outline: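 Fluor-de-Lys kit run with FdL-1 peptide RHK(acetyl-K), 0.1 mM, plus 0.5 mM NAD+. Compounds at 100 μM final, 30 min at 37 °C, then trypsin developer for 45 min at room temperature.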

Sirt2 [3] = target: T4, Sirt2 (Homo sapiens, UniProt Q8IXJ6); experiment: Fluor-de-Lys peptide deacetylation assay, Sirt2; type: biochemical; settings: for Effect on the activity of Sirt2: 0.1 mM FdL-2 peptide, 0.5 mM NAD+
T4 sequence (Q8IXJ6 34-356): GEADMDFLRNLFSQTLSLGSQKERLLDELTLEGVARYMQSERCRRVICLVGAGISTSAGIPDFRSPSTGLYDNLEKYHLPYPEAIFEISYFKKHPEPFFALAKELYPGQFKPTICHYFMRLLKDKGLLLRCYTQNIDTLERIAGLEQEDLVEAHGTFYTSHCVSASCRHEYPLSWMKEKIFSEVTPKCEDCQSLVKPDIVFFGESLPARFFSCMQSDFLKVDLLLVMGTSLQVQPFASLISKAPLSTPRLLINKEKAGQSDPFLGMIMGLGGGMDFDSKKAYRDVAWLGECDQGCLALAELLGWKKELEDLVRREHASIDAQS
Outline: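 Full-length human Sirt2 (E. coli-expressed, purified, His-tag removed) incubated 30 min at 37 °C with 0.1 mM FdL-2 peptide (QPK(acetyl-K)), 0.5 mM NAD+ and compound at 100 μM final in kit buffer. Values corrected with compound-only (no Sirtuin) controls; screen in duplicate, dose-response in triplicate.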

Sirt3 = target: T5, Sirt3 (Homo sapiens, UniProt Q9NTG7); experiment: Fluor-de-Lys peptide deacetylation assay, Sirt3; type: biochemical; settings: 100 μM compound; 0.1 mM FdL-2 peptide, 0.5 mM NAD+
T5 construct: Sirt3 residues 114-399; His-tag with linker comprising a TEV protease cleavage site (N); made in house; host or cells: E. coli
T5 sequence (Q9NTG7 114-399): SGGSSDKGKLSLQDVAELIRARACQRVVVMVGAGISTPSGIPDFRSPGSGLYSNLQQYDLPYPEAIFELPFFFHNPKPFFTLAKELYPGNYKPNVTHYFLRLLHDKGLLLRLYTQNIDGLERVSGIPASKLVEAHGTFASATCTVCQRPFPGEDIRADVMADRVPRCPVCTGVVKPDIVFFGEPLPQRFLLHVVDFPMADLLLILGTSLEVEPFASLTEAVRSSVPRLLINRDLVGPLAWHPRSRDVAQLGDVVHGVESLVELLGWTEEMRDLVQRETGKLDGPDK
Outline: as §1

Sirt1 [4] = settings: cited from earlier work
Sirt2 [5] = settings: cited from earlier work
Sirt5 [6] = settings: cited from earlier work
yeast Sir2 = tested on: yeast Sir2; design: method as in PMID 14534292; settings: cited from earlier work

T3 sequence (Q8N6T7 13-308): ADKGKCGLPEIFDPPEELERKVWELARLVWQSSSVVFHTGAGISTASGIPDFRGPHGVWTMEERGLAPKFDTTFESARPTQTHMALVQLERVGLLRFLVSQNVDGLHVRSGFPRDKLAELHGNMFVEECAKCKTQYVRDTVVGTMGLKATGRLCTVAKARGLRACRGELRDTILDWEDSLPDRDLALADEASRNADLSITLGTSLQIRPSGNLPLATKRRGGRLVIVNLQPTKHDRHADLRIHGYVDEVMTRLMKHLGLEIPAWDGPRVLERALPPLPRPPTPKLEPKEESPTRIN

| Structure (SMILES) | Effect on the activity of Sirt5 (Sirt5 [2]) | Effect on the activity of Sirt6 (Sirt6) | Effect on the activity of Sirt2 (Sirt2 [3]; 100 μM compound) | Effect on the activity of Sirt3 (Sirt3) | other results |
| --- | --- | --- | --- | --- | --- |
| C[C@]12CC[C@@H]3c4ccc(O)cc4CC[C@H]3[C@@H]1CCC2OC(=O)CCc1ccccc1 (some centres unmarked) [CSC8, 3-hydroxyestra-1,3,5(10)-trien-17-yl 3-phenylpropanoate] | --- (no such effect) | --- (no such effect) | inhibition (significant inhibitory effects (>25% loss of activity)) | --- (no such effect) | cytotoxicity (HEK cells): very high cytotoxicity; effect on the in vitro activity of Sirt1 (Sirt1 [1]): only a weak inhibitory effect; inhibition at 100 µM (Sirt2 [3]; 100 μM compound, read-out: Sirt2 inhibition in the screen): ~80%; IC50 (Sirt2 [3]; dose-response, substrate peptide concentration 100 μM, read-out: IC50 against Sirt2): 4.8 ± 0.5 µM |
| Clc1ccc(-c2noc(CN3CCCCC3)n2)cc1 [CSC37, 1-((3-(4-chlorophenyl)-1,2,4-oxadiazol-5-yl)methyl)piperidine] | --- (no such effect) | --- (no such effect) | inhibition (significant inhibitory effects (>25% loss of activity)) | --- (no such effect) |  |
| O=S(=O)(c1cccc(C(F)(F)F)c1)N1c2ccccc2-n2cccc2C1c1cccnc1 (centres unmarked) [CSC38, 4-(3-pyridinyl)-5-((3-(trifluoromethyl)phenyl)sulfonyl)-4,5-dihydropyrrolo[1,2-a]quinoxaline] | activation | activation | inhibition (significant inhibitory effects (>25% loss of activity)) | --- (no such effect) |  |
| OC1(C(O)(c2ccc(-c3ccccc3)cc2)c2ccc(-c3ccccc3)cc2)CCCCC1 [CSC39, 1-(di[1,1'-biphenyl]-4-yl(hydroxy)methyl)cyclohexanol] | --- (no such effect) | --- (no such effect) | --- (no such effect) | --- (no such effect) |  |
| NC(=O)C1CCCc2c1[nH]c1ccc(Cl)cc21 (centres unmarked) [EX-527] |  |  |  |  | IC50 (Sirt1 [4]): […]; potency against Sirt2 relative to Sirt1 (Sirt2 [5]): about two orders of magnitude lower potency; effect against Sirt5 (Sirt5 [6]): no effect |
| CC(NC(=O)c1ccccc1/N=C/c1c(O)ccc2ccccc12)c1ccccc1 (centres unmarked) [sirtinol] |  |  |  |  | weaker potency against Sirt1 than against Sirt2 (Sirt1 [4]): ~ 3 fold; IC50 (Sirt2 [5]; in vitro assay, read-out: IC50 against Sirt2): […] |
| O=C1CCc2c(ccc3ccccc23)O1 [splitomicin] |  |  |  |  | inhibition of yeast Sir2 (potency range) (yeast Sir2): micromolar inhibitors |
